Literature values in patent US4230714A, “Imidazole therapeutic agents” (Pfizer Inc., priority 1978, dated 1980).

Columns and labels:
[1] = test system: human blood platelet aggregation; details: variety of aggregating agents
aggregation of platelets = details: rat, extra corporeal loop of the abdominal aorta
[2] = test system: platelet clumping and embolization in the lungs; details: rabbit, intravenous arachidonic acid

## O=C1C(CC[S+]([O-])c2ccccc2)C(=O)N(c2ccccc2)N1c1ccccc1 (stereo not shown) [sulphinpyrazone]
[1]
  inhibitory activity against platelet aggregation in vitro: show inhibitory activity in vitro
Aggregation of platelets
  prevention of platelet aggregation in vivo: prevent the aggregation of platelets

## CC(=O)Oc1ccccc1C(=O)O [aspirin]
[1]
  inhibitory activity against platelet aggregation in vitro: show inhibitory activity in vitro
[2]
  protection from the lethal effect of arachidonic acid injection: protect the rabbit from the lethal effect of the injection
